In US20090018201A1, “Method of Combating Bugs” (BASF Aktiengesellschaft, priority 2005, published 2009):

How the values were obtained:
Assay in all cases: Field test, activity against bugs on treated host plants
Format in all cases: in vivo
[1] = tested on: Lygus hesperus (Western plant bug); conditions: crop Alfalfa; rate 100 ppm (the 1st table r8); field plots, spray
Protocol: […] Treatments were diluted in water and applied at 400 to 600 liters/hectare to experimental plots using standard application equipment (such as a backpack sprayer). Each treatment was replicated 3 times and comprised an area of approximately 30 square meters. Pre-treatment evaluations of the number of live insects per plant were made one day prior to first treatment. Post-treatment evaluations were made at 5 to 7 day intervals. Field studies were conducted under ambient conditions during normal growing season.

[2] = tested on: Lagynotomus elongatus (Brown rice stink bug); conditions: crop Rice; rate 150 ppm (the 1st table r10); field plots, spray
Protocol: (§1) Host plants (such as rice, wheat, and cabbage) were treated with 50, 150 or 300 ppm of a compound of formula I. Treatments were diluted in water and applied at 400 to 600 liters/hectare to experimental plots using standard application equipment (such as a backpack sprayer). Each treatment was replicated 3 times and comprised an area of approximately 30 square meters. Pre-treatment evaluations of the number of live insects per plant were made one day prior to first treatment. Post-treatment evaluations were made at 5 to 7 day intervals. Field studies were conducted under ambient conditions during normal growing season.

[3] = tested on: Eurydema ornatum (Cabbage bug); conditions: crop Cabbage; rate 50 ppm (the 1st table r13); field plots, spray
Protocol: as §1

[4] = tested on: Trigonotylus coelestialum (Rice leaf bug); conditions: crop Rice; rate 50 ppm (the 1st table r3); field plots, spray
Protocol: as §1

[5] = tested on: Nezara antennata (Common green stink bug); conditions: crop Rice; rate 300 ppm (the 1st table r6); field plots, spray
Protocol: as §1

[6] = tested on: Euschistus spp (Stink bug spp.); conditions: crop Rice; rate 300 ppm (the 1st table r12); field plots, spray
Protocol: as §1

Paromius exiguus = conditions: crop Rice; rate 300 ppm (the 1st table r5); field plots, spray
Protocol: as §1

[7] = tested on: Leptocorisa corbetti (Leaf-footed bug); conditions: crop Rice; rate 50 ppm (the 1st table r9); field plots, spray
Protocol: as §1

[8] = tested on: Stenotus rubrovittatus (Sorghum plant bug); conditions: crop Rice; rate 50 ppm (the 1st table r4); field plots, spray
Protocol: as §1

[9] = tested on: Cletus trigonus (Slender rice bug); conditions: crop Rice; rate 50 ppm (the 1st table r14); field plots, spray
Protocol: as §1

[10] = tested on: Halticus bracteatus (Garden fleahopper); conditions: crop Alfalfa; rate 300 ppm (the 1st table r11); field plots, spray
Protocol: as §1

Measured: control

CCNC(=NNc1c(Cl)cc(C(F)(F)F)cc1Cl)C1(C)CC1(Cl)Cl (stereo not drawn) [N-ethyl-2,2-dichloro-1-methylcyclopropane-carboxamide, 2-(2,6-dichloro-α,α,α-trifluoro-p-tolyl)hydrazone]
over 75%: all assays above
